Measurements as given in article PMC5114727, “Biological characterization of chemically diverse compounds targeting the Plasmodium falciparum coenzyme A synthesis pathway” (Parasites & Vectors, 2016).
Several values for one entry are separate records, joined by “and”; a condition that tells them apart may be missing. Identical values can stand only once. Like-named read-outs stand apart in the source and are kept apart here.

Assays:
[1] = tested on: T. b. brucei trypomastigote; test: T. b. brucei resazurin (Alamar Blue) viability assay; assay type: cell-based, Trypanosoma brucei brucei
Method: Compound activity against two members of another clinically important group of parasites, the kinetoplastids T. cruzi and T. b. brucei was determined. The sensitive high content imaging assay used to determine compound activity against T. cruzi assesses the intracellular amastigote life form of the parasite in the 3T3 host cell. […] The T. b. brucei assay employs the REDOX indicator Alamar Blue to assess viability, which was developed into a 384-well assay format.
Compound activity against T. b. brucei was assessed in a resazurin-based viability assay in concentration-response assays, without technical repeats, in two experimental replicates at a highest concentration of 40 μM, as previously described.

T. cruzi amastigotes = test: T. cruzi amastigote image-based assay in 3T3 host cells; assay type: cell-based, Trypanosoma cruzi; details: for T. cruzi amastigote percent inhibition at the highest concentration tested: 40 µM per footnote, given if an IC50 could not be calculated; for IC50: in 3T3 host cells, read-out: T. cruzi amastigote IC50 ± SEM
Method: The next step taken was to determine whether the activity of the compounds was confined to P. falciparum, or whether it extended to other protozoan parasites. Compound activity against two members of another clinically important group of parasites, the kinetoplastids T. cruzi and T. b. brucei was determined. The sensitive high content imaging assay used to determine compound activity against T. cruzi assesses the intracellular amastigote life form of the parasite in the 3T3 host cell. It is important to simultaneously assess compound activity against 3T3 cells to determine potential cytotoxicity against the host cell line, since this could result in a false positive outcome. The T. b. brucei assay employs the REDOX indicator Alamar Blue to assess viability, which was developed into a 384-well assay format.
Compound activity against T. cruzi amastigotes was assessed in an image-based assay in single point concentration-response and three biological replicates, at a final highest compound concentration of […], as previously described.

T. cruzi trypomastigotes = test: T. cruzi trypomastigote PrestoBlue assay; assay type: cell-based, Trypanosoma cruzi; details: for IC50: highest concentration 40 μM, read-out: T. cruzi trypomastigote IC50 ± SEM
Method: Compound activity against T. cruzi trypomastigotes was assessed in two independent experiments, without technical repeats, at a final highest compound concentration of 40 μM in concentration-response PrestoBlue assay, as previously described.

MDA-MB-231 cells = test: Resazurin cytotoxicity assay, MDA-MB-231; assay type: cell-based, human; details: highest concentration 40 μM; bound = highest concentration with < 50 % inhibition; read-out: MDA-MB-231 cytotoxicity IC50 ± SEM
Excerpt: (§1) An initial indication of compound selectivity over human cells had previously been obtained through comparison of the compounds’ IC50 values against P. falciparum asexual stages and HEK293 [22]. In the present study, the selectivity investigation was extended to a small panel of human cancer cell lines, namely the estrogen receptor (ER)-positive breast cancer cell line MCF7, the ER-negative MDA-MB-231, as well as the human prostate cancer line, PC-3. Additionally, the cytotoxic effects on mouse embryonic fibroblast cell line 3T3, which serves as the host cell for T. cruzi in our image-based amastigote assay, were investigated.
(§2) Cytotoxicity of the compounds was assessed against a panel of human cancer cell lines, namely the estrogen receptor (ER)-positive breast cancer cell line MCF7, the ER-negative MDA-MB-231 and the prostate cancer line PC-3. All the cell lines were purchased from ATCC and maintained as previously described. Two biological replicates consisting of two technical replicates each were performed to generate concentration response curves (CRC) with a final highest concentration of 40 μM. A resazurin-based assay was utilized to determine cell viability as described earlier. Additionally, the cytotoxic effects on the mouse embryonic fibroblast cell line 3T3 were assessed as part of the Trypanosoma cruzi amastigote image-based assay as outlined in [35].

PC-3 cells = test: Resazurin cytotoxicity assay, PC-3; assay type: cell-based, human; details: highest concentration 40 μM; bound = highest concentration with < 50 % inhibition; read-out: PC-3 cytotoxicity IC50 ± SEM
Excerpt: as §1, §2

[2] = tested on: P. falciparum pantothenate kinase (PfPanK); test: Radiometric pantothenate phosphorylation assay in P. falciparum lysate; assay type: biochemical, Plasmodium falciparum; details: 100 μM single concentration, all compounds (Figure S2a)
Method: A radiometric assay, which allows measurement of the phosphorylation of various substrates by kinases present in P. falciparum lysates [16, 39], was used to test the effect of the chemical compounds of interest at 100 μM concentration on PanK activity.
The ability of the test compounds to inhibit P. falciparum pantothenate kinase (PfPanK) was assessed with a radiometric pantothenate phosphorylation assay as described previously [39]. In short, the phosphorylation of [^14C] pantothenate by P. falciparum lysates was measured in the presence or absence of a single concentration (100 μM, two biological replicates in duplicate technical repeats) of each test compound. […] P. falciparum lysate was prepared from trophozoite stage parasites isolated from their host RBC by treatment with 0.05% (w/v) saponin, and washed (three times) in HEPES-buffered saline (125 mM NaCl, 5 mM KCl, 20 mM D-glucose, 25 mM HEPES, 1 mM MgCl2, pH 7.1). Lysates were prepared in 10 mM potassium phosphate, pH 7.4, the concentration of cell lysates was determined from cell counts with an improved Neubauer hemocytometer, and aliquots of lysate were stored at -20 °C.[^14C] pantothenate, [^14C]

[3] = tested on: P. falciparum late stage gametocytes (PfLG, stages IV-V); test: Chemical rescue with CoA pathway intermediates, late stage gametocytes; assay type: cell-based, Plasmodium falciparum; details: inhibitor at IC80; for Percent rescue ± SEM by pantethine, PfLG: pantethine 5 mM; for Percent rescue ± SEM by pantothenate, PfLG: pantothenate 312.5 μM; for Percent rescue ± SEM by CoA, PfLG: CoA 1.8 mM; for Percent rescue ± SEM by dephospho CoA, PfLG: dP-CoA 2 mM
Method: (§3) Pantothenate is the first substrate of the pathway (Fig. 1) and its addition was intended to rescue the action of possible competitive inhibitors of the first enzyme, PanK. […] It is not known, whether P. falciparum is capable of pantetheine phosphorylation for utilization in CoA synthesis. […] Finally, the rescue ability of dP-CoA, the final substrate of CoA synthesis, was tested. […] Inhibitors competing with dP-CoA for DPCK binding were expected to be displaced, thereby rescuing parasite survival, by dP-CoA supplementation in a concentration dependent manner.
An imaging based assay was utilised to assess the chemical rescue on asexual stages of P. falciparum as described previously. All the pathway intermediates were purchased from Sigma. CoA and dP-CoA were dissolved in sterile distilled water to obtain a 20 mM stock solution, which was then aliquoted and stored at -20 °C until use. […] Each pathway intermediate was tested on the parasites at a range of concentrations to assess potential toxicity. […] On early stage P. falciparum gametocytes the same concentrations as for CoA were tested for dP-CoA; against asexual blood stage P. falciparum, late stage gametocytes and Trypanosoma b. brucei five dP-CoA concentrations were tested (2 mM, 1.5 mM, 1 mM, 0.75 mM and 0.5 mM).
(§4) The same concentration ranges of the CoA pathway intermediates were supplemented to parasites treated with the experimental compounds. The inhibitors were used at their respective final assay concentration of IC80 (as determined previously in the corresponding P. falciparum development stage or T. b. brucei assay). […] The negative control used in each assay was 0.4% DMSO, whilst the positive control was 2 μM artemisinin for asexual P. falciparum blood stages and 5 μM puromycin for all gametocyte stages and T. b. brucei. The percentage growth of the respective parasites following compound treatment was determined using Microsoft ® Excel 2010, and compared with their controls. All rescue assays were performed as two independent experiments each in duplicate point.

[4] = tested on: T. b. brucei trypomastigotes; test: Chemical rescue with CoA pathway intermediates, T. b. brucei; assay type: cell-based, Trypanosoma brucei brucei; details: inhibitor at IC80; for Percent rescue ± SEM by CoA, Tbb: CoA 1.0 mM; for Percent rescue ± SEM by pantethine, Tbb: pantethine 2.44 μM; for Percent rescue ± SEM by pantothenate, Tbb: pantothenate 1.25 mM
Method: as §3
An imaging based assay was utilised to assess the chemical rescue on asexual stages of P. falciparum as described previously. All the pathway intermediates were purchased from Sigma. […]
as §4

[5] = 40 µM, given if an IC50 could not be calculated

SMILES	T. b. brucei trypomastigote percent inhibition at the highest concentration tested [1, 5] [%]	T. cruzi amastigote percent inhibition at the highest concentration tested (T. cruzi amastigotes) [%]	T. cruzi trypomastigote percent inhibition at the highest concentration tested (T. cruzi trypomastigotes; [5]) [%]	IC50 (MDA-MB-231 cells) [nM]	IC50 (PC-3 cells) [nM]	PanK inhibition [2]	Percent rescue ± SEM by pantethine, PfLG [3]	Percent rescue ± SEM by pantothenate, PfLG [3]	IC50 ([1]; read-out: T. b. brucei IC50) [nM]	IC50 (T. cruzi amastigotes) [nM]	IC50 (T. cruzi trypomastigotes)	Percent rescue ± SEM by CoA, Tbb [4] [%]	Percent rescue ± SEM by dephospho CoA, Tbb ([4]; dP-CoA 1.6 mM) [%]	Percent rescue ± SEM by pantethine, Tbb [4]	Percent rescue ± SEM by pantothenate, Tbb [4]	IC50 ([1]; highest concentration 40 μM, read-out: T. b. brucei trypomastigote IC50 ± SEM)	Percent rescue ± SEM by CoA, PfLG [3] [%]	Percent rescue ± SEM by CoA, PfLG ([3]; listed as STK740987)	Percent rescue ± SEM by dephospho CoA, PfLG [3] [%]	Percent rescue ± SEM by dephospho CoA, PfLG ([3]; listed as STK740987)
Cc1csc(Sc2ncnc3sccc23)n1 [Amb180780]	100	21	100	> 40000	> 40000	did not reveal inhibition of PanK	No	No	–	–	–	–	–	–	–	–	–	–	–	–
CC(=O)c1ccc2c3c(onc13)-c1ccccc1C2=O [Amb3377585]	–	–	–	5600 ± 330	5500 ± 640	–	–	–	200	13300 ± 2350	740 nM and 744 nM	95.0 ± 4.2	100.4 ± 1.4	No	34.2 ± 1.3% and 34 ± 1%	–	–	–	–	–
CC(=O)C1=C(c2ccccc2)C(=O)c2ccccc2C1=O [Amb4317088]	–	–	–	870 ± 40	1400 ± 60	–	No	No	160	4300 ± 270	390 nM and 392 nM	85.0 ± 6.9	–	No	No	–	–	–	–	–
CC1=CC(=O)C(C(C)C)=C/C1=N/OS(=O)(=O)c1ccccc1 [STK 740987]	–	54	–	> 40000	> 20000	–	No	No	–	–	680 nM and 682 nM	69.6 ± 10.6	–	No	No	1020 nM and 1000 nM	53.1 ± 0.5	approximately 50%	50.3 ± 0.8	approximately 50%
